This is an account of results in patent US7160919B2, “C7 lactyloxy-substituted taxanes” (Florida State University Research Foundation, Inc., priority 2004, dated 2007).

One series relates to HCT116 cells. Briefly: In vitro cytotoxicity, cell colony formation assay (HCT116). In kind it is cell-based. To be noted: colonies counted after 7 days, concentration producing 50% inhibition of colony formation. As for the experimental part: (§1) Four hundred cells (HCT116) were plated in 60 mm Petri dishes containing 2.7 mL of medium (modified McCoy's 5a medium containing 10% fetal bovine serum and 100 units/mL penicillin and 100 µg/mL streptomycin). The cells were incubated in a CO2 incubator at 37° C. for 5 h for attachment to the bottom of Petri dishes. The compound identified in Example 1 was made up fresh in medium at ten times the final concentration, and then 0.3 mL of this stock solution was added to the 2.7 mL of medium in the dish. The cells were then incubated with drugs for 72 h at 37° C. At the end of incubation the drug-containing media were decanted, the dishes were rinsed with 4 mL of Hank's Balance Salt Solution (HBSS), 5 mL of fresh medium was added, and the dishes were returned to the incubator for colony formation. The cell colonies were counted using a colony counter after incubation for 7 days. Cell survival was calculated and the values of IC50 (the drug concentration producing 50% inhibition of colony formation) were determined for each tested compound.
(§2) The assays described above were repeated using the compound identified in Example 2. The results of these assays are tabulated below in comparison with data for paclitaxel and docetaxel.

In a further series the test system is VM46 colon cell line. Briefly: In vitro cytotoxicity, cell colony formation assay (VM46). The conditions noted are these: 72 h drug incubation, colonies counted after 7 days, concentration producing 50% inhibition of colony formation. In kind it is cell-based. As for the experimental part: as §1
An identical assessment was carried out using the VM46 colon cell line.
as §2

Setting [1] is: Homo sapiens, HCT-116, 72 h drug incubation.

Consider `CC(=O)O[C@@]12CO[C@@H]1C[C@H](OC(=O)[C@@H](C)O)[C@@]1(C)C(=O)[C@H](O)C3=C(C)[C@@H](OC(=O)[C@H](O)[C@@H](NC(=O)OC(C)(C)C)c4ccco4)C[C@@](O)([C@@H](OC(=O)c4ccccc4)C12)C3(C)C` (stereo partly drawn) [7-((R)-(+)-2-hydroxyloxypropionyl)-2-furyl-Docetaxel], for which the concentration for half-maximal inhibition (IC50) in the series on HCT116 cells (setting [1]) was determined as 0.05 nM; with VM46 colon cell line, 4.22 nM.

The compound `CC(=O)O[C@@]12CO[C@@H]1C[C@H](OC(=O)[C@H](C)O)[C@@]1(C)C(=O)[C@H](O)C3=C(C)[C@@H](OC(=O)[C@H](O)[C@@H](NC(=O)OC(C)(C)C)c4ccco4)C[C@@](O)([C@@H](OC(=O)c4ccccc4)C12)C3(C)C` (stereo partly drawn) [7-((S)-(−)-2-hydroxyloxypropionyl)-2-furyl-Docetaxel] showed a melting point of 174 to 176 °C. The IC50 with HCT116 cells (setting [1]) amounted to 0.17 nM. For the same compound, the IC50 in the series with VM46 colon cell line came out at 2.5 nM.

In the case of `CC(=O)O[C@@]12CO[C@@H]1C[C@H](O)[C@@]1(C)C(=O)[C@H](O)C3=C(C)[C@@H](OC(=O)[C@H](O)[C@@H](NC(=O)OC(C)(C)C)c4ccccc4)C[C@@](O)([C@@H](OC(=O)c4ccccc4)[C@H]21)C3(C)C` [Docetaxel, docetaxel, reference compound], the IC50 came to 0.6 nM in the series on HCT116 cells (72 h drug incubation) and 6.7 nM in the series on VM46 colon cell line.

`CC(=O)O[C@H]1C(=O)[C@@]2(C)[C@H]([C@H](OC(=O)c3ccccc3)[C@]3(O)C[C@H](OC(=O)[C@H](O)[C@@H](NC(=O)c4ccccc4)c4ccccc4)C(C)=C1C3(C)C)[C@]1(OC(C)=O)CO[C@@H]1C[C@@H]2O` [Paclitaxel, paclitaxel, reference compound]: the IC50 was determined as 2.1 nM in the series with HCT116 cells (setting [1]) and 20 nM in the series on VM46 colon cell line.

The IC50 is the point on the concentration scale where inhibition reaches its midpoint. Higher therefore signals a need for much substance. As a reminder, the melting point is the temperature of the solid-liquid transition.
